The structures appear in SMILES notation. Where “and” joins values, the source holds several entries; their conditions need not be identical. Equal entries are not always repeated. Numbers after ± are expanded uncertainties.

The conditions of this data set: Liquid, Closed cell (Static) method.

Turning to `O=S=O` [sulfur dioxide], the “vapor or sublimation pressure” value (343.15 K) was 1479 ± 5 kPa and 1469 ± 24 kPa; the “vapor or sublimation pressure” value (373.15 K) was 2883 ± 9 kPa; the “vapor or sublimation pressure” value (413.15 K) is 5836 ± 18 kPa and 5978 ± 32 kPa.

For orientation: vapor or sublimation pressure means the equilibrium pressure above the liquid or solid.

For the origin of these results see the NIST ThermoML archive (doi:10.1016/j.fluid.2011.02.008).
